Broadly, the IC50 is the concentration needed to halve the response being measured. A high value points to a need for much substance.

Structures are written as SMILES. Where a SMILES comes first, the peptide text is derived from it. Bridges are numbered along the chain shown (N, C = ends). Roman numbers before positions name the chains, in order. [ ]: non-standard residue; d: D form. Met(O) = CS(=O)CC[C@H](N)C(=O)O

The assay deals with T1, trypsin (bovine pancreas trypsin, Type I) (Bos taurus, UniProt P00760).
T1 construct: purchased Sigma Chemicals T 8003; host or cells: bovine pancreas
T1 sequence (P00760 24-246): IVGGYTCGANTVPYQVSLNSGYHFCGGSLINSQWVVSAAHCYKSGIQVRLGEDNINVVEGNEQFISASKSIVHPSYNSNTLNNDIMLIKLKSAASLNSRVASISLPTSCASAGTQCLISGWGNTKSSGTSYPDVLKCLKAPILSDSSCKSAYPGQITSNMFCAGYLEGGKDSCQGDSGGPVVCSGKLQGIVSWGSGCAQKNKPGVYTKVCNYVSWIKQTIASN
In words: Competitive inhibition of tryptic hydrolysis of Nα-benzoyl-D,L-arginine-p-nitroanilide. Type of assay: biochemical. On the procedure: The inhibition observed was 55 percent at 5 mg/ml.
For these assays, 50 μl of dimeric oligopeptide mixture set solutions in water (0.5-5 mM) were added to 0.1 M Tris-HCl containing 0.025 M CaCl2, pH 7.8 (100 μl), to which were added 15 μl of trypsin (bovine pancreas trypsin, Type I; Sigma Chemicals T 8003; 0.05 mg/ml in 0.02 N HCl ). The solution was maintained for 30 minutes, and the above substrate (N^α -benzoyl-D,L-arginine-p-nitroanitide) was added (100 μl, 1 mg/ml in water). Absorbances at 405 nm were read using a Titertek multichannel photometer after another 30 minutes had elapsed and were expressed as a percentage of the control (absorbance of a solution without peptide).

Consider `CC(=O)N[C@@H](CC[S+](C)[O-])C(=O)N[C@@H](CSSC[C@H](NC(=O)[C@H](CC[S+](C)[O-])NC(C)=O)C(=O)N[C@@H](Cc1c[nH]c2ccccc12)C(=O)N[C@@H](CCCNC(=N)N)C(N)=O)C(=O)N[C@@H](Cc1c[nH]c2ccccc12)C(=O)N[C@@H](CCCNC(=N)N)C(N)=O` (stereo partly shown) [SEQ ID NO:4] (I: Ac-[Met(O)]CWR-NH2 / II: Ac-[Met(O)]CWR-NH2; disulfide I:2-II:2), for which the IC50 is 53 µM.

For the origin of these results see patent US6287787A, “Dimeric oligopeptide mixture sets” (Torrey Pines Institute for Molecular Studies, priority 1993, dated 2001).
